Reference: ChEMBL document CHEMBL5625197, “The mystery of titan hunter: Rationalized striking of the MAPK pathway via Newly synthesized 6-Indolylpyridone-3-Carbonitrile derivatives” (Eur J Med Chem, 2023)

How the values were obtained:
HOP-92 [1] = experiment: cells; assay type: functional; details: Homo sapiens, HOP-92, 96 h, time 4 day, read-out: GI
Description: Growth inhibition of human HOP-92 cells at 10 uM incubated for 4 days by MTT assay relative to control

SR [2] = experiment: cells; assay type: functional; details: Homo sapiens, 96 h, time 4 day, read-out: GI
Description: Growth inhibition of human SR cells at 10 uM incubated for 4 days by MTT assay relative to control

RXF 393 [3] = experiment: cells; assay type: functional; details: Homo sapiens, RXF 393, 96 h, time 4 day, read-out: GI
Description: Growth inhibition of human RXF 393 cells at 10 uM incubated for 4 days by MTT assay relative to control

HCT-116 [4] = experiment: cells; assay type: functional; details: Homo sapiens, HCT-116, 96 h, time 4 day, read-out: GI
Description: Growth inhibition of human HCT-116 cells at 10 uM incubated for 4 days by MTT assay relative to control

[5] = Selectivity index, ratio of GI50 for cytotoxicity against human PCS-800-011 cells to GI50 for cytotoxicity against human SR cells; assay type: toxicity, cell-based; details: PCS-800-011 cells versus SR cells, read-out: RatioGI50
[6] = Cytotoxicity against human FHC cells assessed as cell growth inhibition incubated for 4 days by MTT assay
HOP-92 [7] = experiment: Cytotoxicity against human HOP-92 cells assessed as cell growth inhibition incubated for 4 days by MTT assay; assay type: functional; details: HOP-92, 96 h, time 4 day
HCT-116 [8] = experiment: Cytotoxicity against human HCT-116 cells assessed as cell growth inhibition incubated for 4 days by MTT assay; assay type: functional; details: HCT-116, 96 h, time 4 day
[9] = Selectivity index, ratio of GI50 for cytotoxicity against human FHC cells to GI50 for cytotoxicity against human HCT-116 cells; assay type: toxicity, cell-based; details: FHC cells versus HCT-116 cells, read-out: RatioGI50
[10] = Cytotoxicity against human PCS-800-011 cells assessed as fold change in cell growth inhibition incubated for 4 days by MTT assay; assay type: toxicity, cell-based; details: pcs-800-011, 96 h, time 4 day
[11] = Selectivity index, ratio of GI50 for cytotoxicity against human MRC5 cells to GI50 for cytotoxicity against human HOP-92 cells
[12] = Cytotoxicity against human HEK293 cells assessed as cell growth inhibition incubated for 4 days by MTT assay
[13] = Selectivity index, ratio of GI50 for cytotoxicity against human HEK293 cells to GI50 for cytotoxicity against human RXF 393 cells
[14] = Cytotoxicity against human MRC5 cells assessed as cell growth inhibition incubated for 4 days by MTT assay
SR [15] = experiment: Cytotoxicity against human SR cells assessed as cell growth inhibition incubated for 4 days by MTT assay; assay type: functional; details: 96 h, time 4 day
[16] = Cytotoxicity against human PCS-800-011 cells assessed as cell growth inhibition incubated for 4 days by MTT assay
RXF 393 [17] = experiment: Cytotoxicity against human RXF 393 cells assessed as cell growth inhibition incubated for 4 days by MTT assay; assay type: functional; details: RXF 393, 96 h, time 4 day
[18] = target: Hepatocyte growth factor receptor (Homo sapiens, UniProt P08581); experiment: Inhibition of c-Met (unknown origin)
HOP-92 [19] = experiment: Inhibition of cell invasion in human HOP-92 cells incubated for 15 to 20 mins by crystal violet staining based trans-well assay relative to control; assay type: functional; details: time 15-20 min
HOP-92 [20] = experiment: Induction of apoptosis in human HOP-92 cells assessed as early apoptotic rate by Annexin V/ PI staining based flow cytometry (reference value: 0.42 %); assay type: functional
HOP-92 [21] = experiment: Induction of apoptosis in human HOP-92 cells assessed as late apoptotic rate by Annexin V/ PI staining based flow cytometry (reference value: 0.26 %); assay type: functional
HOP-92 [22] = experiment: Induction of apoptosis in human HOP-92 cells assessed as fold change in Bax gene expression by RT-PCR analysis; assay type: functional
HOP-92 [23] = experiment: Induction of apoptosis in human HOP-92 cells assessed as total apoptotic rate by Annexin V/ PI staining based flow cytometry (reference value: 2.28 %); assay type: functional
HOP-92 [24] = experiment: Inhibition of cell migration in human HOP-92 cells assessed as fold decrease in cell count incubated for 15 to 20 mins by crystal violet staining based trans-well assay; assay type: functional; details: time 15-20 min
HOP-92 [25] = experiment: Induction of apoptosis in human HOP-92 cells assessed as fold change in ratio of Bax/Bcl-2 gene expression by RT-PCR analysis; assay type: functional
HOP-92 [26] = experiment: Induction of apoptosis in human HOP-92 cells assessed as fold change in caspase-9 gene expression by RT-PCR analysis; assay type: functional
HOP-92 [27] = experiment: Induction of cell cycle arrest in human HOP-92 cells assessed as cell aggregation (reference value: 1.77 %); assay type: functional
HOP-92 [28] = experiment: Induction of apoptosis in human HOP-92 cells assessed as fold change in caspase-8 gene expression by RT-PCR analysis; assay type: functional
HOP-92 [29] = experiment: Induction of cell cycle arrest in human HOP-92 cells assessed as cell debris (reference value: 2.18 %); assay type: functional
HOP-92 [30] = experiment: Induction of cell cycle arrest in human HOP-92 cells assessed as accumulation of cells at G0/G1 phase (reference value: 54.83 %); assay type: functional
HOP-92 [31] = experiment: Induction of apoptosis in human HOP-92 cells assessed as fold change in PARP1 gene expression by RT-PCR analysis; assay type: functional
HOP-92 [32] = experiment: Induction of apoptosis in human HOP-92 cells assessed as fold change in TNFR1 gene expression by RT-PCR analysis; assay type: functional
HOP-92 [33] = experiment: Induction of apoptosis in human HOP-92 cells assessed as necrosis rate by Annexin V/ PI staining based flow cytometry (reference value: 1.6 %); assay type: functional
HOP-92 [34] = experiment: Inhibition of cell migration in human HOP-92 cells incubated for 15 to 20 mins by crystal violet staining based trans-well assay relative to control; assay type: functional; details: time 15-20 min
HOP-92 [35] = experiment: Induction of apoptosis in human HOP-92 cells assessed as fold change in caspase-3 gene expression by RT-PCR analysis; assay type: functional
HOP-92 [36] = experiment: Induction of cell cycle arrest in human HOP-92 cells assessed as accumulation of cells at S phase (reference value: 29.57 %); assay type: functional
HOP-92 [37] = experiment: Inhibition of colony formation in human HOP-92 cells incubated for 24 hrs by crystal violet staining based assay relative to control; assay type: functional
HOP-92 [38] = experiment: Induction of apoptosis in human HOP-92 cells assessed as fold change in p53 gene expression by RT-PCR analysis; assay type: functional
HOP-92 [39] = experiment: Induction of apoptosis in human HOP-92 cells assessed as fold change in Bcl-2 gene expression by RT-PCR analysis; assay type: functional
HOP-92 [40] = experiment: Induction of cell cycle arrest in human HOP-92 cells assessed as accumulation of cells at G2/M phase (reference value: 15.6 %); assay type: functional

Which inhibition of growth at 10 µM (HOP-92 [1]) does the source give for `N#Cc1c(-c2ccc(F)c(F)c2)cc(-c2c[nH]c3ccccc23)[nH]c1=O` here?
The inhibition of growth at 10 µM was 53.1%.

What about the inhibition of growth at 10 µM (SR [2]) of the same compound?
The inhibition of growth at 10 µM was 55.9%.

What about the inhibition of growth at 10 µM (RXF 393 [3]) of the same compound?
The inhibition of growth at 10 µM was 65.7%.

And the inhibition of growth at 10 µM (HCT-116 [4])?
The inhibition of growth at 10 µM was 51%.

With `N#Cc1c(-c2ccc(C(F)(F)F)cc2)cc(-c2c[nH]c3ccccc23)[nH]c1=O` as the compound, how does the inhibition of growth at 10 µM (HOP-92 [1]) read?
The inhibition of growth at 10 µM was 56.7%.

What about the inhibition of growth at 10 µM (SR [2]) of the same compound?
The inhibition of growth at 10 µM was 48.5%.

And the inhibition of growth at 10 µM (RXF 393 [3])?
The inhibition of growth at 10 µM was 71.6%.

And the inhibition of growth at 10 µM (HCT-116 [4])?
Its inhibition of growth at 10 µM is 67.5%.

Which inhibition of growth at 10 µM (HOP-92 [1]) does the source give for `N#Cc1c(-c2ccc(O)c(O)c2)cc(-c2c[nH]c3ccccc23)[nH]c1=O` here?
Its inhibition of growth at 10 µM is 31.2%.

And the inhibition of growth at 10 µM (SR [2])?
The inhibition of growth at 10 µM was 69.8%.

What about the inhibition of growth at 10 µM (RXF 393 [3]) of the same compound?
The inhibition of growth at 10 µM was 11%.

What about the inhibition of growth at 10 µM (HCT-116 [4]) of the same compound?
Its inhibition of growth at 10 µM is 9.54%.

With `N#Cc1c(-c2ccc(Cl)c(Cl)c2)cc(-c2c[nH]c3ccccc23)[nH]c1=O` as the compound, how does the selectivity ratio [5] read?
Its selectivity ratio is 8.02.

What about the GI50 at 96 h [6] of the same compound?
Its GI50 at 96 h is 41 µM.

What about the GI50 (HOP-92 [7]) of the same compound?
Its GI50 is 3.44 µM.

What about the GI50 (HCT-116 [8]) of the same compound?
Its GI50 is 10.6 µM.

And the selectivity ratio [9]?
The selectivity ratio was 3.86.

What about the “fold change (FC)” value [10] of the same compound?
The value was 3.5.

What about the inhibition of growth at 10 µM (HOP-92 [1]) of the same compound?
The inhibition of growth at 10 µM was 73.3%.

And the RatioGI50 [11]?
The RatioGI50 was 16.3.

And the inhibition of growth at 10 µM (SR [2])?
The inhibition of growth at 10 µM was 71.8%.

And the GI50 at 96 h [12]?
Its GI50 at 96 h is 42.6 µM.

What about the inhibition of growth at 10 µM (RXF 393 [3]) of the same compound?
The inhibition of growth at 10 µM was 75.8%.

What about the inhibition of growth at 10 µM (HCT-116 [4]) of the same compound?
The inhibition of growth at 10 µM was 76.5%.

What about the RatioGI50 [13] of the same compound?
Its RatioGI50 is 2.56.

What about the GI50 at 96 h [14] of the same compound?
Its GI50 at 96 h is 56.1 µM.

What about the GI50 (SR [15]) of the same compound?
Its GI50 is 9.17 µM.

What about the GI50 at 96 h [16] of the same compound?
Its GI50 at 96 h is 73.6 µM.

And the GI50 (RXF 393 [17])?
The GI50 was 16.6 µM.

With `N#Cc1c(-c2ccccc2Cl)cc(-c2c[nH]c3ccccc23)[nH]c1=O` as the compound, how does the inhibition of growth at 10 µM (HOP-92 [1]) read?
The inhibition of growth at 10 µM was 55.1%.

What about the inhibition of growth at 10 µM (SR [2]) of the same compound?
The inhibition of growth at 10 µM was 90%.

What about the inhibition of growth at 10 µM (RXF 393 [3]) of the same compound?
Its inhibition of growth at 10 µM is 51.3%.

And the inhibition of growth at 10 µM (HCT-116 [4])?
Its inhibition of growth at 10 µM is 47.6%.

With `CCOc1ccn(-c2ccc(F)cc2)c(=O)c1C(=O)Nc1ccc(Oc2ccnc(N)c2Cl)c(F)c1` [BMS-777607] as the compound, how does the IC50 [18] read?
Its IC50 is 0.128 µM.

With `COc1cccc2c1C(=O)c1c(O)c3c(c(O)c1C2=O)C[C@@](O)(C(=O)CO)C[C@@H]3O[C@H]1C[C@H](N)[C@H](O)[C@H](C)O1` [DOXORUBICIN] as the compound, how does the “inhibition (INH)” value (HOP-92 [19]) read?
The value was 41.96%.

What about the Activity (HOP-92 [20]) of the same compound?
The Activity was 16.64%.

And the Activity (HOP-92 [21])?
The Activity was 26.57%.

And the “fold change (FC)” value (HOP-92 [22])?
Its value is 6.62.

And the Activity (HOP-92 [23])?
Its Activity is 52.49%.

And the “fold change (FC)” value (HOP-92 [24])?
The value was 3.8.

What about the “fold change (FC)” value (HOP-92 [25]) of the same compound?
Its value is 21.4.

What about the “fold change (FC)” value (HOP-92 [26]) of the same compound?
Its value is 12.4.

What about the Activity (HOP-92 [27]) of the same compound?
Its Activity is 2.15%.

And the “fold change (FC)” value (HOP-92 [28])?
Its value is 4.36.

What about the Activity (HOP-92 [29]) of the same compound?
Its Activity is 2.44%.

What about the Activity (HOP-92 [30]) of the same compound?
The Activity was 48.53%.

What about the “fold change (FC)” value (HOP-92 [31]) of the same compound?
Its value is 0.23.

And the “fold change (FC)” value (HOP-92 [32])?
Its value is 0.24.

And the Activity (HOP-92 [33])?
The Activity was 9.28%.

What about the “inhibition (INH)” value (HOP-92 [34]) of the same compound?
Its value is 73.54%.

What about the “fold change (FC)” value (HOP-92 [35]) of the same compound?
The value was 14.3.

And the Activity (HOP-92 [36])?
Its Activity is 21.73%.

And the “inhibition (INH)” value (HOP-92 [37])?
Its value is 44.9%.

And the “fold change (FC)” value (HOP-92 [38])?
Its value is 6.97.

What about the “fold change (FC)” value (HOP-92 [39]) of the same compound?
Its value is 0.31.

What about the Activity (HOP-92 [40]) of the same compound?
The Activity was 29.74%.

Which GI50 (RXF 393 [17]) does the source give for `CN[C@@H]1C[C@H]2O[C@@](C)([C@@H]1OC)n1c3ccccc3c3c4c(c5c6ccccc6n2c5c31)C(=O)NC4` [STAUROSPORINE] here?
Its GI50 is 0.95 µM.
